From PubChem BioAssay (NCI)
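Each compound was tested at five concentrations against cells in 96-well plates for 48 hours. GI50 marks 50% less growth. Definition used: TGI = concentration required for complete inhibition of growth.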

Columns and labels:
Assay in all cases: NCI anticancer screen, dose series, 48 h
[1] = test system: UO-31 renal
[2] = test system: MCF7 breast
[3] = test system: SNB-19 CNS
[4] = test system: SK-MEL-5 melanoma
[5] = test system: NCI-H23 lung
[6] = test system: SW-620 colon
[7] = test system: U251 CNS
[8] = test system: SK-MEL-2 melanoma
[9] = test system: NCI/ADR-RES ovarian
[10] = test system: NCI-H226 lung
[11] = test system: MDA-MB-435
[12] = test system: SF-539 CNS
[13] = test system: SR leukemia
[14] = test system: M14 melanoma
[15] = test system: HL-60(TB) leukemia
[16] = test system: A498 renal
[17] = test system: ACHN renal
[18] = test system: OVCAR-4 ovarian
[19] = test system: LOX IMVI melanoma
[20] = test system: BT-549 breast
[21] = test system: CAKI-1 renal
[22] = test system: MDA-MB-231 breast
[23] = test system: SF-295 CNS
[24] = test system: T-47D breast
[25] = test system: HCT-116 colon
[26] = test system: MALME-3M melanoma
[27] = test system: OVCAR-8 ovarian
[28] = test system: HCT-15 colon
[29] = test system: NCI-H522 lung
[30] = test system: CCRF-CEM leukemia
[31] = test system: HOP-62 NSCLC
[32] = test system: IGROV1 ovarian
[33] = test system: RPMI-8226 leukemia
[34] = test system: SNB-75 CNS
[35] = test system: 786-0 renal
[36] = test system: UACC-62 melanoma
[37] = test system: SK-OV-3 ovarian
[38] = test system: MOLT-4 leukemia
[39] = test system: SF-268 CNS
[40] = test system: K-562 leukemia
[41] = test system: SN12C renal
[42] = test system: HCC-2998 colon
[43] = test system: COLO 205 colon
[44] = test system: NCI-H460 lung
[45] = test system: DU-145 prostate
[46] = test system: EKVX NSCLC
[47] = test system: PC-3 prostate
[48] = test system: RXF 393 renal
[49] = test system: KM12 colon
[50] = test system: A549 NSCLC
[51] = test system: OVCAR-3 ovarian
[52] = test system: TK-10 renal
[53] = test system: OVCAR-5 ovarian
[54] = test system: SK-MEL-28 melanoma
[55] = test system: UACC-257 melanoma
[56] = test system: HT29 colon
[57] = test system: HS 578T breast
[58] = test system: HOP-92 NSCLC

Cc1cc(N2CCOCC2)nc(NCc2cc(Nc3ccnc4cc(Cl)ccc34)ccc2F)n1
GI50 [1]: 1.57 µM
TGI [1]: 3 µM
GI50 [2]: 0.348 µM
TGI [2]: 1.5 µM
GI50 [3]: 1.65 µM
TGI [3]: 3.45 µM
GI50 [4]: 1.56 µM
TGI [4]: 2.94 µM
GI50 [5]: 1.86 µM
TGI [5]: 4.2 µM
GI50 [6]: 1.63 µM
TGI [6]: 3.28 µM
GI50 [7]: 1.63 µM
TGI [7]: 3.12 µM
GI50 [8]: 1.95 µM
TGI [8]: 3.61 µM
GI50 [9]: 1.73 µM
TGI [9]: 3.31 µM
GI50 [10]: 2.06 µM
TGI [10]: 4.31 µM
GI50 [11]: 1.56 µM
TGI [11]: 2.92 µM
GI50 [12]: 1.79 µM
TGI [12]: 3.28 µM
GI50 [13]: 1.61 µM
TGI [13]: 3.82 µM
GI50 [14]: 1.86 µM
TGI [14]: 3.57 µM
GI50 [15]: 2.31 µM
TGI [15]: 4.82 µM
GI50 [16]: 0.894 µM
TGI [16]: 2.25 µM
GI50 [17]: 1.83 µM
TGI [17]: 3.33 µM
GI50 [18]: 1.32 µM
TGI [18]: 3.69 µM
GI50 [19]: 1.75 µM
TGI [19]: 3.27 µM
GI50 [20]: 1.72 µM
TGI [20]: 3.53 µM
GI50 [21]: 1.63 µM
TGI [21]: 3.14 µM
GI50 [22]: 1.88 µM
TGI [22]: 3.63 µM
GI50 [23]: 1.59 µM
TGI [23]: 3.03 µM
GI50 [24]: 1.38 µM
TGI [24]: 3.41 µM
GI50 [25]: 1.51 µM
TGI [25]: 3.08 µM
GI50 [26]: 1.98 µM
TGI [26]: 3.68 µM
GI50 [27]: 1.86 µM
TGI [27]: 3.58 µM
GI50 [28]: 1.7 µM
TGI [28]: 3.3 µM
GI50 [29]: 1.95 µM
TGI [29]: 3.85 µM
GI50 [30]: 1.46 µM
TGI [30]: 4.79 µM
GI50 [31]: 1.51 µM
TGI [31]: 2.96 µM
GI50 [32]: 1.64 µM
TGI [32]: 3.92 µM
GI50 [33]: 2.32 µM
TGI [33]: 5.96 µM
GI50 [34]: 1.19 µM
TGI [34]: 2.64 µM
GI50 [35]: 1.83 µM
TGI [35]: 3.35 µM
GI50 [36]: 1.75 µM
TGI [36]: 3.35 µM
GI50 [37]: 1.92 µM
TGI [37]: 3.48 µM
GI50 [38]: 1.4 µM
TGI [38]: 3.66 µM
GI50 [39]: 1.42 µM
TGI [39]: 3.02 µM
GI50 [40]: 1.78 µM
TGI [40]: 4.49 µM
GI50 [41]: 1.83 µM
TGI [41]: 3.66 µM
GI50 [42]: 1.67 µM
TGI [42]: 3.26 µM
GI50 [43]: 0.665 µM
TGI [43]: 2.15 µM
GI50 [44]: 1.83 µM
TGI [44]: 3.57 µM
GI50 [45]: 1.6 µM
TGI [45]: 3.08 µM
GI50 [46]: 1.52 µM
TGI [46]: 3.91 µM
GI50 [47]: 1.8 µM
TGI [47]: 3.48 µM
GI50 [48]: 1.63 µM
TGI [48]: 3.37 µM
GI50 [49]: 1.69 µM
TGI [49]: 3.21 µM
GI50 [50]: 1.87 µM
TGI [50]: 3.6 µM
GI50 [51]: 1.72 µM
TGI [51]: 3.16 µM
GI50 [52]: 1.84 µM
TGI [52]: 3.4 µM
GI50 [53]: 1.62 µM
TGI [53]: 3.16 µM
GI50 [54]: 1.83 µM
TGI [54]: 3.4 µM
GI50 [55]: 1.85 µM
TGI [55]: 3.54 µM
GI50 [56]: 0.834 µM
TGI [56]: 2.24 µM

O=C(NCCNCCO)c1ccc(Nc2nc3ccccc3c3occc23)cc1
GI50 [1]: 18.5 µM
TGI [1]: 44.9 µM
GI50 [2]: 28 µM
TGI [2]: > 100 µM
GI50 [3]: 18.5 µM
TGI [3]: 49.5 µM
GI50 [4]: 18.4 µM
TGI [4]: 35.2 µM
GI50 [5]: 12.8 µM
TGI [5]: 26.4 µM
GI50 [6]: 21.1 µM
TGI [6]: 43.1 µM
GI50 [7]: 11.2 µM
TGI [7]: 23.8 µM
GI50 [8]: 20.5 µM
TGI [8]: 60.3 µM
GI50 [9]: 24.9 µM
TGI [9]: 61.8 µM
GI50 [57]: 16.1 µM
TGI [57]: 36.7 µM
GI50 [11]: 7.29 µM
TGI [11]: 22 µM
GI50 [12]: 12.6 µM
TGI [12]: 29.4 µM
GI50 [14]: 14.9 µM
TGI [14]: 30.4 µM
GI50 [16]: 18.3 µM
TGI [16]: 39.4 µM
GI50 [17]: 14.2 µM
TGI [17]: 27.3 µM
GI50 [18]: 24 µM
TGI [18]: > 100 µM
GI50 [19]: 8.45 µM
TGI [19]: 22.2 µM
GI50 [20]: 11.5 µM
TGI [20]: 34.2 µM
GI50 [21]: 17.3 µM
TGI [21]: 33.1 µM
GI50 [22]: 3.12 µM
TGI [22]: 16.2 µM
GI50 [23]: 14.1 µM
TGI [23]: 29.8 µM
GI50 [24]: 25.8 µM
TGI [24]: 90.2 µM
GI50 [25]: 10.1 µM
TGI [25]: 23.3 µM
GI50 [27]: 2.61 µM
TGI [27]: 16.2 µM
GI50 [28]: 16.7 µM
TGI [28]: 31.2 µM
GI50 [58]: 3.01 µM
TGI [58]: 18.4 µM
GI50 [29]: 14.3 µM
TGI [29]: 35.4 µM
GI50 [30]: 3.05 µM
TGI [30]: 14.3 µM
GI50 [31]: 12.2 µM
TGI [31]: 24.9 µM
GI50 [32]: 6.71 µM
TGI [32]: 25.1 µM
GI50 [33]: 18.3 µM
TGI [33]: 37.5 µM
GI50 [34]: 9.26 µM
TGI [34]: 27.2 µM
GI50 [35]: 13.7 µM
TGI [35]: 27.5 µM
GI50 [36]: 16.6 µM
TGI [36]: 30.8 µM
GI50 [37]: 15.4 µM
TGI [37]: 36.5 µM
GI50 [38]: 4.77 µM
TGI [38]: 15.1 µM
GI50 [39]: > 100 µM
TGI [39]: > 100 µM
GI50 [40]: 3.37 µM
TGI [40]: 6.71 µM
GI50 [41]: 11.9 µM
TGI [41]: 24.6 µM
GI50 [42]: 2.14 µM
TGI [42]: 5.27 µM
GI50 [43]: 29.1 µM
TGI [43]: > 100 µM
GI50 [44]: 28.5 µM
TGI [44]: > 100 µM
GI50 [45]: 14.9 µM
TGI [45]: 30.7 µM
GI50 [46]: 13.9 µM
TGI [46]: 32 µM
GI50 [47]: 4.15 µM
TGI [47]: 18.3 µM
GI50 [49]: 8.99 µM
TGI [49]: 23.8 µM
GI50 [50]: 15.3 µM
TGI [50]: 30.1 µM
GI50 [51]: 6.22 µM
TGI [51]: 22.8 µM
GI50 [52]: 2.11 µM
TGI [52]: 6.67 µM
GI50 [53]: 10.9 µM
TGI [53]: 23.2 µM
GI50 [54]: 23.7 µM
TGI [54]: 58.4 µM
GI50 [56]: 29.3 µM
TGI [56]: > 100 µM
